The results in this text go back to ChEMBL document CHEMBL1201862, “PubChem BioAssay data set” (2004).

Among the test systems are 786-0; A498; A549; CAKI-1; DMS-114; HCT-15; M14; MOLT-4; NCI-H460; SF-268; SF-295; SF-539; SK-MEL-5; SK-OV-3; SR; SW-620; UACC-62; BT-549; Hs-578T; MDA-N.
Common to all, as to assay: inhibition of tumour cell growth, NCI panel, 48 h

Molecules are shown by their SMILES.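 Following 48 hours of exposure in 96-well plates, responses at five concentrations were used to interpolate endpoints linearly. GI50 = concentration required for 50% inhibition of growth.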 Calls of active or inactive are those of the source. Cut-off read from the data, not from the text of the source: active = GI50 up to about 1.1 µM and inactive = higher.

Take `C=C1C(=O)OC2C1C(OC(=O)/C(C)=C\C)CC1(CO1)C1C(O)C=C(C)C21O` (stereo not given): the GI50 with 786-0 is 2.96 µM (inactive); in the assay on A498, 5.02 µM (inactive); with A549, 20.6 µM (inactive); in the assay with CAKI-1, 2.04 µM (inactive); in the assay on DMS-114, 3.19 µM (inactive); with HCT-15, 2.81 µM. For the same molecule, the GI50 was 2.63 µM (inactive) with M14; 2 µM (inactive) in the assay on MOLT-4; 14.3 µM (inactive) in the assay on NCI-H460; 2.64 µM (inactive) in the assay on SF-268; 20.8 µM (inactive) in the assay on SF-295; 2.61 µM (inactive) with SF-539. Moreover, the GI50 with SK-MEL-5 is 4.28 µM (inactive); in the assay with SK-OV-3, 16.7 µM (inactive); in the assay on SR, 4.83 µM (inactive); with SW-620, 1.58 µM (inactive); with UACC-62, 1.74 µM (inactive).
For `CC(=O)N1CCC(=O)/C(=C/c2ccccc2)C1`, the GI50 with 786-0 is 27.7 µM (inactive); in the assay with A498, 56.5 µM (inactive); in the assay with A549, 71.9 µM (inactive); with CAKI-1, 15.5 µM (inactive); in the assay with DMS-114 it was 15.8 µM (inactive); in the assay with HCT-15 it was 17.1 µM. Further, the GI50 was 33.8 µM (inactive) with M14; 33.2 µM (inactive) with MOLT-4; 27.7 µM (inactive) in the assay on NCI-H460; 20.5 µM (inactive) in the assay on SF-268; 42.8 µM (inactive) in the assay on SF-295; 23.3 µM (inactive) in the assay on SF-539. The GI50 with SK-MEL-5 was 34 µM (inactive); in the assay on SK-OV-3 it was 75.2 µM (inactive); in the assay on SR, 24.5 µM (inactive); in the assay on SW-620 it was 17.6 µM (inactive); with UACC-62, 24.7 µM (inactive).
In the case of `CC1=C(C(=O)Nc2ccccc2)C(c2ccc(Cl)c(Cl)c2)C(C(=O)Nc2ccccc2)=C(C)N1`, the GI50 in the assay with 786-0 is 12.8 µM (inactive); in the assay with A498, 16.7 µM (inactive); with A549, 7.48 µM (inactive); in the assay with DMS-114, 11.2 µM (inactive); in the assay on HCT-15, 10.9 µM; with M14, 11.5 µM (inactive). For the same molecule, the GI50 is 0.512 µM (active) in the assay on MOLT-4; 13 µM (inactive) with NCI-H460; 12 µM (inactive) with SF-268; 12.5 µM (inactive) with SF-295; 17.3 µM (inactive) in the assay with SF-539; 14 µM (inactive) in the assay on SK-MEL-5. Moreover, the GI50 in the assay with SK-OV-3 is 15.1 µM (inactive); in the assay with SW-620 it was 17 µM (inactive); with UACC-62 it was 10.2 µM (inactive).
Regarding `CC(C)=CCC/C(C)=C/CC/C(C)=C/C1CCC(=O)C1(C)C` (stereo not given), the GI50 with 786-0 was 17.9 µM (inactive); in the assay with A498, 18.5 µM (inactive); in the assay with A549 it was 27 µM (inactive); in the assay on CAKI-1, 20.7 µM (inactive); in the assay on DMS-114, 14.5 µM (inactive); in the assay with HCT-15 it was 15.5 µM. Further, the GI50 with M14 is 19.5 µM (inactive); in the assay with MOLT-4, 22.8 µM (inactive); in the assay on NCI-H460, 17.5 µM (inactive); in the assay with SF-268 it was 17.1 µM (inactive); in the assay on SF-295, 18.3 µM (inactive); in the assay on SF-539, 19.5 µM (inactive). The GI50 was 15.1 µM (inactive) in the assay on SK-MEL-5, 30.3 µM (inactive) with SK-OV-3, 19.7 µM (inactive) in the assay on SR and 19.1 µM (inactive) in the assay with UACC-62.
On to `CCCc1ccc(/N=C\c2cc(OC)c(OC)c(OC)c2)cc1`, for which the GI50 was > 100 µM (inactive) in the assay on 786-0; > 100 µM (inactive) in the assay with A498; > 100 µM (inactive) in the assay with A549; > 100 µM (inactive) in the assay with CAKI-1; 18.7 µM (inactive) in the assay with DMS-114; > 39.9 µM in the assay with HCT-15. For the same molecule, the GI50 with M14, in the assay on MOLT-4, with NCI-H460, in the assay on SF-268, in the assay on SF-295 and in the assay with SF-539 was > 100 µM (inactive) throughout. Further, the GI50 in the assay with SK-MEL-5 was > 100 µM (inactive); in the assay with SK-OV-3 it was > 100 µM (inactive); in the assay with SR, 55.5 µM (inactive); in the assay on SW-620, > 100 µM (inactive); in the assay on UACC-62, > 100 µM (inactive).
For `COC(=O)[C@@H]1Cc2c([nH]c3ccccc23)[C@H](c2ccccc2)N1`, the GI50 in the assay on 786-0 was 37.2 µM (inactive); with A498, 20.9 µM (inactive); with A549, 38.6 µM (inactive); in the assay with CAKI-1, 60.5 µM (inactive); with DMS-114 it was 32.2 µM (inactive); in the assay on HCT-15, 19.4 µM. The GI50 is 25.6 µM (inactive) in the assay with M14; 41.4 µM (inactive) with MOLT-4; 34.5 µM (inactive) in the assay on NCI-H460; 41.7 µM (inactive) in the assay with SF-268; 26.2 µM (inactive) in the assay on SF-295; 26.4 µM (inactive) with SF-539. Besides, the GI50 with SK-MEL-5 was 14.7 µM (inactive); in the assay on SK-OV-3, 34.4 µM (inactive); in the assay on SR, 29.2 µM (inactive); in the assay on SW-620, 35.8 µM (inactive); with UACC-62 it was 50.2 µM (inactive).
Take `CSc1nnc(CCC(=O)Nc2c(C)cccc2C)o1`: the GI50 with 786-0 is > 100 µM (inactive); in the assay with A498, > 100 µM (inactive); in the assay on A549, > 100 µM (inactive); in the assay on CAKI-1 it was > 100 µM (inactive); in the assay with DMS-114 it was > 100 µM (inactive); in the assay with HCT-15, 50.8 µM. Also, the GI50 in the assay on M14, in the assay with MOLT-4, in the assay on NCI-H460, in the assay on SF-268, with SF-295 and with SF-539 was > 100 µM (inactive) in each case. The GI50 in the assay on SK-MEL-5, with SK-OV-3, with SW-620 and with UACC-62 was > 100 µM (inactive) each time.
Turning to `O=C(/N=N/C(=O)OCc1ccccc1)OCc1ccccc1`, the GI50 with 786-0 was > 100 µM (inactive); in the assay on A549, 81.3 µM (inactive); in the assay with CAKI-1 it was 49.8 µM (inactive); with DMS-114, 34.4 µM (inactive); with HCT-15, 94.2 µM; in the assay on M14, > 100 µM (inactive). For the same molecule, the GI50 is 31.9 µM (inactive) with MOLT-4; > 100 µM (inactive) in the assay with NCI-H460; 96.4 µM (inactive) in the assay on SF-268; 35 µM (inactive) in the assay on SF-295; > 100 µM (inactive) in the assay with SF-539; > 100 µM (inactive) with SK-MEL-5. Moreover, the GI50 with SK-OV-3, with SW-620 and in the assay on UACC-62 was > 100 µM (inactive) each time.
As to `CC(c1cccc2ccccc12)/[N+]([O-])=C/c1ccccc1` (stereo not given), the GI50 in the assay on 786-0, in the assay on A498, with A549, in the assay with DMS-114, in the assay on MOLT-4 and in the assay on NCI-H460 was > 100 µM (inactive) each time. Besides, the GI50 in the assay on SF-268, in the assay on SF-295, in the assay on SF-539, in the assay on SK-MEL-5, with SK-OV-3 and with SW-620 was > 100 µM (inactive) each time.
Regarding `O=C(c1ccc(O)cc1)C1c2c3c(cc(O)c2C(c2ccc(O)cc2)C1c1cc(O)cc(O)c1)OC(c1ccc(O)cc1)C3c1cc2c(cc1O)OC(c1ccc(O)cc1)C2c1cc(O)cc(O)c1` (stereo not given), the GI50 is > 12.5 µM (inactive) in the assay on 786-0; > 12.5 µM (inactive) in the assay with A498; > 12.5 µM (inactive) in the assay on A549; > 12.5 µM (inactive) with CAKI-1; > 12.5 µM (inactive) in the assay with DMS-114; > 12.5 µM in the assay with HCT-15. Besides, the GI50 in the assay with M14, in the assay on MOLT-4, in the assay with NCI-H460, in the assay with SF-268, in the assay on SF-539 and with SK-MEL-5 was > 12.5 µM (inactive) each time. Further, the GI50 in the assay on SR was > 12.5 µM (inactive); in the assay with SW-620, > 12.5 µM (inactive); with UACC-62, 0.065 µM (active).
`CN(C(=O)Cc1ccccc1)n1cnn(CC(=O)OC(C)(C)C)c1=S`: the GI50 in the assay on 786-0 is > 10 µM (inactive); in the assay on A498 it was > 10 µM (inactive); in the assay on A549 it was > 10 µM (inactive); in the assay with BT-549 it was > 10 µM (inactive); in the assay on CAKI-1, > 10 µM (inactive); with HCT-15, > 10 µM. Also, the GI50 with Hs-578T, with M14, in the assay on MDA-N, with MOLT-4, in the assay with NCI-H460 and in the assay with SF-268 was > 10 µM (inactive) each time. The GI50 with SF-295, in the assay with SF-539, in the assay with SK-MEL-5, in the assay with SK-OV-3, in the assay with SR and in the assay on SW-620 was > 10 µM (inactive) in each case. Besides, the GI50 with UACC-62 was > 10 µM (inactive).
With `c1cncc(CNc2ncn[nH]2)c1`, the GI50 is > 100 µM (inactive) in the assay on 786-0; > 100 µM (inactive) in the assay with A498; > 100 µM (inactive) with A549; > 100 µM (inactive) with BT-549; > 100 µM (inactive) with CAKI-1; > 100 µM in the assay with HCT-15. The GI50 in the assay on Hs-578T, in the assay with M14, with MDA-N, in the assay with MOLT-4, with NCI-H460 and in the assay on SF-268 was > 100 µM (inactive) throughout. The GI50 with SF-295, in the assay with SF-539, with SK-MEL-5, with SK-OV-3, in the assay with SR and in the assay with SW-620 was > 100 µM (inactive) each time. Further, in the assay with UACC-62, the GI50 was > 100 µM (inactive).
